Measurements taken from article PMC6429200, “Synthesis and Broad Antiviral Activity of Novel 2-aryl-isoindolin-1-ones towards Diverse Enterovirus A71 Clinical Isolates” (Molecules, 2019).

Assays:
[1] = tested on: EV-A71 strain Jiangsu52 (JS52); assay: CPE inhibition assay for anti-EV-A71 in Vero cells, Jiangsu52 strain; format: cell-based, Enterovirus 71 (EV-A71)
Description: (§1) An in-vitro antiviral assay was established using the Africa monkey kidney cell line Vero which was infected with different EV-A71 clinical isolates (BrCr, H, Shenzhen98 and Jiangsu52). A total of 24 synthetic compounds were initially screened in such an assay to determine their inhibitory effect on virus replication at 3-fold diluted concentrations serial (400~0.18 μM). The 50% effective concentration (EC50) of each compound was calculated according to its inhibitory rate values with the Reed–Muench method. The 50% cytotoxic concentration (CC50) was defined as the concentration that inhibited 50% cellular growth in comparison with the controls. The selectivity index (SI) was calculated as CC50/EC50. […] Generally, the EV-A71 H strain was less sensitive to most of the active compounds as compared to the other virus strains.
EV-A71 strain ShenZhen98 (SZ98) was isolated from the throat swab sample of an HFMD case which occurred in 1998 in China. This was kindly provided by Dr. Qi Jin, Institute of Pathogen Biology, Chinese Academy of Medical Science and Peking Union Medical School, Beijing, China. EV-A71 strains BrCr (VR-1775) and H (VR-1432) were purchased from the ATCC. The EV-A71 strain JS52 was a kind gift from Dr. Xiangzhong Ye, Beijing Wantai Biological Pharmacy Enterprise Co., Ltd. EV-A71 were all passaged in Vero cells.
The anti-EV-A71 activity of compounds was determined by the CPE inhibition method. Briefly, cells (3 × 10^4 cells/well) were plated into 96-well culture plates for incubation for 24 h. The medium was then removed and cells were infected with EV-A71 with 100TCID50 (50% tissue culture infective doses) in serum-free medium for 1 h at 37 °C. Then, the unbound viruses were removed and various concentrations of compounds were supplemented and incubated for another 48 h. The EC50 was determined by the Reed–Muench method. The selectivity index was calculated as the ratio of CC50/EC50 [15].

[2] = tested on: EV-A71 (H strain) VP1 RNA; assay: qRT-PCR of VP1 RNA in infected Vero cells; format: cell-based, Enterovirus 71 (EV-A71); settings: H strain MOI = 0.1, 1 h infection then A3 for 24 h, RT-qPCR
Description: To further confirm the anti-EV-A71 activity, the expression levels of VP1 RNA and protein were determined. Vero cells were infected with the H strain of EV-A71 for 1 h followed by treatment with A3 of various concentrations for another 24 h. […] Meanwhile, the antiviral efficacy of A3 was also tested using viral titer reduction assays.
Vero cells (9 × 10^5cells/well) were plated into 6-well culture plates for incubation for 16 h. The medium was removed and cells were infected with EV-A71 (H, MOI = 0.1). After 1 h, various concentrations of A3 were supplemented and incubated for another 24 h. The total RNA of the infected cells was extracted using the RNeasy Mini kit (QIAGEN) according to the manufacturer’s instructions. […] The RNA expression of EV-A71 VP1 was detected with the sense primer 5′-GATATCCCACATTCGGTGA-3′ and the antisense primer 5′-[…] -3′ targeting a conserved region of the VP1 gene. β-Actin mRNA was detected using the sense primers 5′-TGACGGGGT CACCCACA CTGTGCCCATCTA-3′ and the antisense primer 5′-CTAGAAGCATTTG CGGTGGACG ATG-3′. […] The relative amounts of EV-A71 VP1 mRNA were calculated by the comparative Ct method after normalizing the quantity of β-actin [15].
Figure 2 Compound A3 inhibited EV-A71 replication in vitro. […] Intracellular viral VP1 protein (A) and RNA (B) were determined by Western blot and qRT-PCR assays, respectively. […]

[3] = Cytotoxicity assay (CPE) on Vero cells; format: cell-based; settings: African green monkey; Vero cells, 3 days of incubation, Reed–Muench; read-out: CC50
Description: as §1
African green monkey kidney (Vero) cells were purchased from the American Type Culture Collection (ATCC) and were cultured in minimum essential medium (MEM) supplemented with 10% fetal bovine serum (FBS) (GIBCO) and antibiotics (100 U/mL penicillin and […] streptomycin) at 37 °C in a 5% CO2 incubator.
The cytotoxic effects of compounds on Vero cells were detected by the cytopathic effect (CPE) assay. Briefly, cells (3 × 10^4 cells/well) were seeded into 96-well culture plates and incubated overnight. Then, the medium was removed and different concentrations of compounds were applied in triplicate. After 3 days of incubation, the CC50 was defined as the concentration that inhibited 50% cellular growth in comparison with the untreated controls, as calculated by the Reed–Muench method.

[4] = tested on: EV-A71; assay: Time-of-addition assay (VP1 Western blot) in Vero cells; format: cell-based, Enterovirus 71 (EV-A71)
Description: In order to explore the inhibitory effect of compound A3 on the EV-A71 viral life cycle, EV-A71 viral protein VP1 was measured via Western blot when Vero cells were treated with compound A3 prior to, during, or after EV-A71 viral incubation (Figure 3). […] It is likely that compound A3 inhibits the EV-A71 replication by acting on the virus entry stage.
The antiviral activity of the tested compound was examined at different time periods prior to, during or after viral infection. Briefly, Vero cells (9 × 10^5 cells/well) were inoculated with EV-A71 (MOI = 1.0) at 37 °C for 1 h. The media with or without treatment were added during the periods of −24~0 h, −1~0 h, 0~10 h, 1~10 h, 2~10 h, 4~10 h, 6~10 h and 8~10 h. After each incubation period, the collected cells were washed with PBS, and then the viral protein was determined by Western blot.
Figure 3 Time-of-addition analysis of Vero cells with compound A3 treatment prior to, during or after EV-A71 infection. (A) Schematic illustration of experiment to determine which stage of EV-A71 viral cycle was inhibited by compound A3 in Vero cells. […] For all experiments, the collected cells were washed with PBS after 10 h post viral infection, and viral VP1 expression was determined via Western blot assay.

For O=C1c2ccccc2CN1c1ccc(Cl)cc1 [Compound A3, 2-(4-chlorophenyl)isoindolin-1-one], the “Jiangsu52 SI” value ([1]; CC50/EC50) was 199, the EC50 ([1]; Enterovirus A, EVA71, Vero cells, 100TCID50, 48 h) was 1.29 ± 0.24 µM and the “VP1 RNA expression level” value [2] was “significantly reduced VP1 RNA expression level in a dose-dependent way”. The CC50 at 3 days [3] was 257 ± 35.3 µM, the “EV-A71 VP1 expression in Vero cells” value ([4]; A3 4 μM at 0, 1 and 2 h after infection (MOI = 1.0), cells collected 10 h post infection, not at the other time periods) was “significantly decreased” and the “time-of-addition: effect of pretreatment” value ([4]; A3 added 24 or 1 h prior to infection) was “did not display any resistance to infection by EV-A71”. For the same compound, the “time-of-addition: efficacy, addition after infection” value ([4]; A3 added at 1 or 2 h after EV-A71 infection) was “significant efficacy” and the “time-of-addition: inhibitory activity, addition during inoculation” value ([4]; A3 added during the inoculation of the virus) was “maximum inhibitory activity”.
